Laboratory results published in patent US11452725B2, “Chiral diaryl macrocycles and uses thereof” (TURNING POINT THERAPEUTICS, INC., priority 2015, dated 2022).

System: CD44
Experiment: CD44 expression by immunoblotting in H2228 cells
Format: cell-based, human
Settings: 48 hours treatment, 0-1000 nM
Experimental: NSCLC cell line H2228 (harboring endogenous EML4-ALK fusion gene) was cultured in RPMI medium supplemented with 10% fetal bovine serum and 100 U/mL of penicillin/streptomycin. Ba/F3 and NIH3T3 cells stably expressing ROS1, or TRKA, or TRKB, or TRKC (WT or mutant) were cultured as mentioned above. […] Cells were collected after treatment and lysed in RIPA buffer (50 mM Tris, pH 7.4, 150 mM NaCl, 1% NP-40, 0.5% Deoxycholate, 0.1% SDS) supplemented with 10 mM EDTA, 1× Halt protease and phosphatase inhibitors (Thermo Scientific). Protein lysates (approximately 20 μg) was resolved on 4-12% Bolt Bis-Tris precasted gels with MES running buffer (Life Technologies), transferred to nitrocellulose membranes using Trans-Blot Turbo Transfer System (Bio-Rad) and detected with antibodies targeting phosphorylated phosphorylated ROS1 and total ROS1 (Cell Signaling Technology), phosphorylated TRK A/B (Cell Signaling Technology), total TRKA antibody (Santa Cruz Biotechnology), phosphorylated SRC Y416 (Cell Signaling Technology), total SRC (Cell Signaling Technology), phosphorylated FAK Y576/577 (Cell Signaling Technology), total FAK (Cell Signaling Technology), phosphorylated paxillin Y118 (Cell Signaling Technology), total paxillin (Cell Signaling Technology), phosphorylated EGFR and total EGFR, CD44, and Tubulin (Sigma). […]

Question: `C[C@@H](Oc1cc(-c2cnn(C3CCNCC3)c2)cnc1N)c1c(Cl)ccc(F)c1Cl` [crizotinib, reference compound] was tested. Which CD44 expression level did it give?
Answer: does not show down-regulation of CD44 expression
